Test results from patent US8071613B2, “Anti-constipation composition” (Sucampo AG, priority 2000, dated 2011).
One block for each molecule: values may come before it.

Experiments:
[1] = Ratio of mono-cyclic/bi-cyclic structure by NMR measurement; type: physicochemical; conditions: NMR measurement in CDCl3 solution
Text: It has been discovered that in the absence of water, compounds represented by Formula (I) exist predominantly in the form of the bi-cyclic compound. In aqueous media, it is believed that hydrogen bonding occurs between, for example, the ketone position at the C-15 position, thereby hindering bi-cyclic ring formation. In addition, it is believed that the halogen atom(s) at the C-16 position promote bi-cyclic ring formation. The mono-cyclic/bi-cyclic structures, for example, may be present in a ratio of 1:6 in D2O; 1:10 in CD3OD-D2O and 4:96 in CDCl3. Accordingly, a preferable embodiment of the present invention is the composition in which the bi-cyclic form is present in ratio of bi -cyclic/mono-cyclic of least 1:1, and preferably 20:1, or even greater to substantially all bi-cyclic compound; 100% bi-cyclic compound is within this invention.
The biological activity of compositions due to the ratios of mono-cyclic/bi-cyclic structures when Z of general formula (I) is an oxygen atom, and a ketone is present at the C-9 position of the present invention can be seen from the following examples.

[2] = test system: intraintestinal content; assay: Enteropooling test; type: in vivo; conditions: dose that raises the intraintestinal content by 50%
Text: The enteropooling test employed in the present invention is intended to investigate mainly on the action (ii) and/or (iii), which assesses the effect of the drug on the intraintestinal water pool by measuring the volume of the intraintestinal content. The bi-cyclic-halogenated compounds of the present invention may show extremely great enteropooling effect. However, they hardly or slightly cause contraction of intestines which is one of indexes for assessment of the action (iv). Accordingly, the bi-cyclic-halogenated compounds of the present invention are considered to alleviate constipation by mainly acting on intestinal mucosa directly or indirectly to affect transfer of electrolytes and water from intestinal walls into blood vessels and/or from blood vessels into intestines, resulting in reduced water absorption and/or in increased water secretion through the intestines, increased intraintestinal water pool and promoted transfer of the intraintestinal content. Enteropooling tests and diarrhea tests were conducted. The dose that raise the intraintestinal content by 50% was referred to as ED50. [drawing 31] […]

[3] = Storage stability at 40° C. without solvent (crystal), content by HPLC; type: physicochemical; conditions: crystal (no solvent); for content of compound, initial: hard glass container, 40° C.
Method: (§1) Each of the solutions was placed in a container made of hard glass and stored at 40° C. The time-course content of compound 1 and 2 in the solutions were determined by HPLC method. At the same time, each of compounds 1 and 2 was placed solely (without being dissolved in the solvent) in the container as above, and stored at 40° C. to provide control study.
(1) In the absence of the solvent, the content of the compounds was determined as follows by the HPLC method.
Stored compounds 1 and 2, and standard compounds 1 and 2 were weighed precisely around 0.025 g each, and exactly 5 mL aliquots of internal standard solution were added to the respectively weighed compounds. Test and standard preparations were obtained by adding acetonitrile (liquid chromatograph grade) to give the precise total amount of 10 mL each. Each 10 μL of the test and standard preparations were loaded on liquid chromatograph and determined the content of the compound by internal standard method with one point calibration curve.
(§2) WX: The amount of the compound in the standard preparation (mg)
WT: The amount of compound 1 and 2 in the test preparation.
(§3) QS: Peak area ratio of the compound in the standard preparation to the internal standard.
(§4) QT: Peak area ratio of the compound in the test preparation to the internal standard.
Detector: Ultraviolet absorption spectrophotometer (wavelength 294 nm)
(§5) Column: A stainless tube having about 5 mm of internal diameter and about 25 cm of length, packed with 5 μm octadecylsilyl silica gel for liquid chromatograph
Column temperature: Stable around 35° C.
Mobile phase: Mixed solution of acetonitrile (liquid chromatograph grade)/aqueous sodium acetate (0.01 mol/L)/glacial acetic acid (800:200:1)

[4] = Storage stability at 40° C. dissolved in medium chain fatty acid triglyceride (MCT), content by HPLC; type: physicochemical; conditions: for content of compound, initial / content of compound, 14 days: in MCT (compound 1 0.36 mg/g; compound 2 0.12 mg/g); for content of compound, initial: 40° C.; for content of compound, 14 days: in % (unit assumed)
Method: The following compounds 1 and 2 were dissolved in a medium chain fatty acid triglyceride (MCT=mixture of caprylic acid triglyceride and capric acid triglyceride in a ratio of 85:15) in an amount shown in the table below.
as §1
(2) In the presence of the solvent, the content of the compound was determined as follows by HPLC method.
Based on the value expressed in the above table, an amount of the solution corresponding to 36 μg of compounds 1 and 2 was weighed precisely. Precisely 1.0 mL of an internal standard solution was added, and then ethyl acetate, (liquid chromatograph grade) was added to give a total amount of 10 mL each. Each 0.1 mL of the solution was vacuum concentrated to dryness to give the test preparation.
Each 18 mg of the standard compounds was weighed precisely and admixed with ethyl acetate (liquid chromatograph grade) to give the total amount of exactly 50 mL each. 1.0 mL of the solution and 10.0 mL of the internal standard solution were measured precisely and admixed with ethyl acetate (liquid chromatograph grade) to give a total of 100 mL each. Each 0.1 mL of the solution was vacuum concentrated to dryness to give the standard preparation.
To the test and standard preparations, 0.1 mL of fluorescent labeling reagent and 0.85 mL of fluorescent labeling catalyst were added, respectively, and the mixture was stirred and reacted at room temperature for more than 30 minutes. 0.05 mL aliquots of acetonitrile (liquid chromatograph grade) containing 2% acetic acid were added to the reaction mixtures, respectively, stirred, and then allowed to stand for more than 30 minutes to provide test and standard solutions.
Each 10 μL of the test and standard solution was loaded on liquid chromatograph and determined the content of the respective compounds by internal standard method with one point calibration curve.
as §2, §3, §4
Detector: Fluorescent spectrometer (excitation wavelength 259 nm; fluorescent wavelength 394 nm)
as §5
Column temperature: Stable at around 35° C.
Mobile phase: Mixed solution of acetonitrile (liquid chromatograph grade)/methanol (liquid chromatograph grade)/aqueous ammonium acetate (0.05 mol/L) (4:11:5)

[5] = test system: healthy male volunteers; assay: Bowel movement after single oral administration to healthy male volunteers; type: in vivo, human
Method: Effect of the Present Invention Dissolved in Medium Chain Fatty Acid Triglyceride on Bowel Movement After Single Oral Administration to Healthy Male Volunteers
3 to 9 healthy male volunteers were treated with a composition containing the following mono-cyclic/bi-cyclic structures (in CDCl3) in a ratio of 4:96.
The test substance (R1 and R2 are F atoms) was dissolved in Panacet 800 (medium chain fatty acid triglyceride manufactured by Nippon Oil & Fat co., Ltd., Amagasaki, Japan) and filled in a capsule (each capsule contains […] of the mixture). Each subject was administered one capsule with 100 mL of water.

[6] = 5 μg single oral capsule in Panacet 800
[7] = 10 μg single oral capsule in Panacet 800
[8] = 20 μg single oral capsule in Panacet 800
[9] = 30 μg single oral capsule in Panacet 800

Ratio of mono-cyclic/bi-cyclic structure [1]: No signal
SMILES: CCCCCC(=O)CCC1C(O)CC(=O)C1CCCCCCC(=O)O (stereo not shown) [Comparative Example A, reference compound]
Enteropooling activity, ED50 [2]: 320 µg/kg

SMILES: CCCCCC(=O)CCC1C(O)CC(=O)C1CC=CCCCC(=O)OC (stereo not shown) [Comparative Example C, reference compound]
Enteropooling activity, ED50 [2]: 220 µg/kg

SMILES: CCCCC(F)(F)C1(O)CCC2C(CC(=O)C2CCCCCCC(=O)O)O1 (stereo not shown) [Example A]
Enteropooling activity, ED50 [2]: 0.6 µg/kg

SMILES: CCCCC(F)C(=O)CCC1C(O)CC(=O)C1CCCCCCC(=O)O (stereo not shown) [Example B]
Enteropooling activity, ED50 [2]: 2 µg/kg

SMILES: CCCCC(F)(F)C1(O)CCC2C(CC(=O)C2CC=CCCCC(=O)OC)O1 (stereo not shown) [Example C]
Enteropooling activity, ED50 [2]: 0.3 µg/kg

SMILES: CCCCC(F)C(=O)CCC1C(O)CC(=O)C1CC=CCCCC(=O)OC (stereo not shown) [Example D]
Enteropooling activity, ED50 [2]: 3 µg/kg

content of compound, initial [3]: 100%
content of compound, 7 days ([3]; stored at 40° C., 7 days): 97.2
content of compound, 14 days ([3]; stored at 40° C.): 94.1%
content of compound, 28 days ([3]; stored at 40° C.): 87.4%
content of compound, 38 days ([4]; in MCT (compound 1 0.36 mg/g), stored at 40° C., 38 days): 102.1
content of compound, 90 days ([4]; in MCT (compound 1 0.36 mg/g), stored at 40° C., 90 days): 100.9
content of compound, initial [4]: 100%
content of compound, 14 days ([4]; stored at 40° C.): 101.4
SMILES: CCCCC(F)(F)C1(O)CC[C@@H]2C(CCCCCCC(=O)O)C(=O)C[C@H]2O1 (stereo partly shown) [compound 1]

content of compound, initial [3]: 100%
content of compound, 6 days ([3]; stored at 40° C., 6 days): 84.5%
content of compound, 14 days ([3]; stored at 40° C.): 75%
content of compound, 28 days ([3]; stored at 40° C.): 53.4%
content of compound, initial [4]: 100%
content of compound, 14 days ([4]; stored at 40° C.): 99.6
content of compound, 28 days ([4]; in MCT (compound 2 0.12 mg/g), stored at 40° C., 28 days): 98.9%
content of compound, 191 days ([4]; in MCT (compound 2 0.12 mg/g), stored at 40° C., 191 days): 99.6%
SMILES: CC[C@H](C)CC(F)(F)C1(O)CC[C@@H]2C(CCCCCCC(=O)O)C(=O)C[C@H]2O1 (stereo partly shown) [compound 2]

SMILES: CCCCC(F)(F)C1(O)CCC2C(CC(=O)C2CCCCCCC(=O)O)O1 (stereo not shown) [test substance]
Number of Subjects Loose or Diarrhea [5, 6]: 2/3
Number of Subjects Normal [5, 6]: 1/3
Number of Subjects Loose or Diarrhea [5, 7]: 2/7
Number of Subjects Normal [5, 7]: 5/7
Number of Subjects Loose or Diarrhea [5, 8]: 2/3
Number of Subjects Normal [5, 8]: 1/3
Number of Subjects Loose or Diarrhea [5, 9]: 7/9
Number of Subjects Normal [5, 9]: 2/9
